Measured values taken from US11780802B2, “Organic sulfonic acid salts of amino acid esters and process for their preparation” (priority 2017, dated 2023).

Assay: Stability in alkaline solution (residual ester bonds by 1H-NMR after storage)
Format: physicochemical
Settings: 7 d, 50 wt % in water
Method: To determine the stability under alkaline conditions, 50 wt % of the organic sulfonic acid salt of an amino acid ester is dissolved in water, pH is adjusted with sodium hydroxide to pH 8.5. The aqueous solution or emulsion is stored for 7 days at room temperature and 40° C. Before storage the integral of CH2-O—CO— (^1H-NMR in MeOD, ˜4.2 ppm) is measured. The stability of organic sulfonic acid salt of an amino acid ester is indicated by measuring the integral of CH2-O—CO— (^1H-NMR in MeOD) after storage.

Row | Compound | Residual amount of ester bonds after storage, calculated from 1H-NMR in MeOD (pH 8.5, 40° C.) [%] | Residual amount of ester bonds after storage, calculated from 1H-NMR in MeOD (pH 8.5, RT) [%]
1 | CCCCC(CC)COC(=O)CCCCCN.CCCCCCCCCCCCc1ccc(S(=O)(=O)O)cc1 [Example 11, 6-amino-hexane acid-2-ethylhexylester 4-dodecylbenzene sulfonic acid salt] | 100 | 100
2 | CCCCC(CC)COC(=O)CN.CS(=O)(=O)O (stereo not drawn) [compound 3] | 20 | 37
3 | CCCCC(CC)COC(=O)C(C)N.CS(=O)(=O)O (stereo not drawn) [compound 4] | 46 | 72
